{
  "source": "patent US20090099123A1",
  "about": "“Antisense microRNA and uses therefor” (priority 2007, published 2009)",
  "key": {"[1]": {"tested_on": "RKO and SW480 colon cancer cells", "assay": "Cell proliferation assay in colon cancer cells", "type": "cell-based", "description": "(§1) FIG. 8A: Decreased cell survival in RKO cells. […] Cell survival is expressed as the percentage of β-CDODA-Me-treated cells remaining compared to DMSO (set at 100%).\n(§2) RKO and SW480 colon cancer cells (2×10^4 per well) were plated in 12-well plates and allowed to attach for 24 hr. The medium was then changed to DMEM/Ham's F-12 medium containing 2.5% charcoal-stripped FBS, and either vehicle (DMSO) or different concentrations of the compound were added. Fresh medium and compounds were added every 48 hr, and cells were then trypsinized and counted after 48 and 96 hr using a Coulter Z1 cell counter. Transfection experiments in RKO and SW480 cells used 0.4 μg of reporter gene constructs and 0.04 μg of β-Gal and LipofectAMINE 2000 reagent (Invitrogen). Results of cell proliferation and transfection studies are expressed as means±S.E. for at least three replicate determinations for each treatment group. Western blots were determined with whole cell lysates essentially."}, "RKO and SW480 cells [2]": {"tested_on": "RKO and SW480 cells", "assay": "Induction of apoptosis / PARP cleavage in colon cancer cells (Western blot)", "type": "cell-based", "description": "as §1, §2"}, "[3]": {"tested_on": "Sp1, Sp3, Sp4, VEGF, VEGFR1 and survivin", "assay": "Sp and Sp-dependent mRNA and proteins in colon cancer cells (semi-quantitative RT-PCR, Western blot)", "type": "cell-based", "excerpt": "(§3) ID NO: 8), ZBTB10 (sense [NT] ID NO: 9); antisense [NT] ID NO: 10), VEGF (sense [NT] ID NO: 11); antisense [NT] ID NO: 12), VEGFR1 (sense [NT] ID NO: 13); antisense [NT] ID NO: 14), Survivin (sense [NT] ID NO: 15); antisense [NT] ID NO: 16) and GAPDH (sense [NT] ID NO: 17); antisense [NT] ID NO: 18)."}, "Sp1 gene promoter": {"tested_on": "Sp1 gene promoter", "assay": "Sp1 promoter construct luciferase activity in RKO cells", "type": "cell-based", "description": "as §2"}, "Sp3 gene promoter": {"tested_on": "Sp3 gene promoter", "assay": "Sp3 promoter construct luciferase activity in RKO cells", "type": "cell-based", "description": "as §2"}, "miR-27a [4]": {"tested_on": "miR-27a", "assay": "miR-27a by quantitative real time PCR in colon cancer cells", "type": "cell-based", "conditions": "RKO and SW480 cells, 18 hr", "description": "(§4) cDNA was prepared from the RKO and SW480, cell lines using Reverse Transcription System (Promega). Each PCR was carried out in triplicate in a 20-μl volume using SYBR Green Mastermix (Applied Biosystems, Foster City, Calif.) for 15 min at 95° C. for initial denaturing, followed by 40 cycles of 95° C. for 30 s and 60° C. for 1 min in the Applied Biosystems 7900HT Fast Real-time PCR System. The ABI Dissociation Curves software was used following a brief thermal protocol (95° C. for 15 s and 60° C. for 15 s, followed by a slow ramp to 95° C.) to control for multiple species in each PCR amplification. Values for each gene were normalized to expression levels of TATA-binding protein. The primers used for real-time PCR were Myt-1 (sense 5′-CCTTCCAAGAGTAGCTCCAATTC-3′ (SEQ ID NO: 19); antisense 5′-GCC GGT AGC TCC CAT ATG G-3′) (SEQ ID NO: 20) and TATA-binding protein (sense 5′-TGC ACA GGA GCC AAG AGT GM-3′ (SEQ ID NO: 21); antisense 5′-CACATCACAGCTCCCCACCA-3′) (SEQ ID NO: 22). miRNA was extracted using the mirVana miRNA extraction kit (Applied Biosystems). Quantification of miRNA (RNU6B and miRNA-27a) was done using the Taqman miRNA kit (Applied Biosystems) according to the manufacturer's protocol with real-time PCR. U6 small nuclear RNA was used as a control to determine relative miRNA expression."}, "ZBTB10": {"tested_on": "ZBTB10", "assay": "ZBTB10 by semi-quantitative RT-PCR in colon cancer cells", "type": "cell-based", "conditions": "RKO or SW480 cells, 18 hr", "excerpt": "as §3"}, "RKO and SW480 cells [5]": {"tested_on": "RKO and SW480 cells", "assay": "FACS cell cycle analysis in colon cancer cells", "type": "cell-based", "description": "Effects of β-CDODA-Me. SW480 (FIG. 12A) and RKO (FIG. 12B) cells were treated for 24 hr with DMSO(O), 2.5 and 5.0 μM β-CDODA-Me, and analyzed by FACS analysis. FIG. 12C: iSp modulates Sp protein expression and the cell cycle in SW480 and RKO cells. Cells were transfected with iSp, a combination of small inhibitory RNAs for Sp1, Sp3 and Sp4 or a non-specific oligonucleotide (iLamin), and analyzed for Sp proteins by Western blots (to confirm Sp knockdown) and FACS analysis. FIG. 12D: as-miR-27a modulates the cell cycle. SW480 and RKO cells were transfected with different amounts of as-miR-27a and, after 48 hr, analyzed by FACS. All experiments in FIGS. 12A-12D were repeated three times, and results are expressed as means±SE. Significant (p<0.05) changes compared to untreated (0) or iLamin-treated cells are indicated by asterisks.\nRKO and SW480 cells were treated with either the vehicle (DMSO) or the compound for 24 hr or with as-miR27a. Cells were trypsinized, centrifuged, and resuspended in staining solution containing 50 μg/mL propidium iodide, 4 mmol/L sodium citrate and 30 units/mL RNase. After incubation at room temperature for 1 hr, cells were analysed on a FACS Vantage SE DiVa made by Becton Dickinson (BD), using BD FACSDiva Software V4.1.1. Propidium iodide (PI) fluorescence was collected through a 610SP bandpass filter, and list mode data were acquired on a minimum of 50,000 single cells defined by a dot plot of PI width vs. PI area. Data analysis was performed in BD FACSDiva Software V4.1.1 using PI width vs. PI area to exclude cell aggregates."}, "Myt-1, Wee-1 and cdc2": {"tested_on": "Myt-1, Wee-1 and cdc2", "assay": "Myt-1 and Wee-1 expression and cdc2 phosphorylation in colon cancer cells", "type": "cell-based", "description": "(§5) FIGS. 13A-13D show the in vitro and in vivo effects of β-CDODA-Me on G2/M arrest and inhibition of tumor growth. Effects of β-CDODA-Me (FIG. 13A, 13B) and as-miR-27a (FIG. 13C) on Myt-1 and cdc2 phosphorylation. Colon cancer cells were treated with different amounts of β-CDODA-Me or as-miR-27a for the indicated times, and Myt-1 expression and cdc2 phosphorylation were determined by real time PCR or Western blots, respectively. […] FIGS. 13D-13F: β-CDODA-Me inhibit tumor growth (volume) (FIG. 13D), weight (FIG. 13E) and miR-27a expression (FIG. 13F) in a mouse xenograft model. Nude mice bearing RKO cells as xenografts were treated with corn oil (solvent control) or β-CDODA-Me (15 mg/kg/d), and tumor volumes, tumor weights, and miR-27a expression were determined.\nas §4"}, "RKO cells as xenografts": {"tested_on": "RKO cells as xenografts", "assay": "Xenograft study in athymic nude mice", "type": "in vivo", "description": "as §5\nMice were used in accordance with institutional guidelines when they were 8-12 wk old. To produce tumors, RKO cells were harvested from subconfluent cultures by a brief exposure to 0.25% trypsin and 0.02% EDTA and only suspensions consisting of single cells with >90% viability were used for the injections. A xenograft was established by s.c. injection of the cells (5×10^6) into the flanks of individual mice and, after 6 days, mice were randomized into two groups of 5 mice per group and dosed by oral gavage in corn oil or 15 mg/kg/d B-CDODA-Me 5 days a week for 22 days. The mice were weighed, and tumor size was measured every third day with calipers to permit calculation of tumor volumes: V=LW^2/2, where L and W were length and width, respectively. Final tumors weights were determined at the end of the dosing regimen. Tumor tissues and selected body organs (liver and kidney) were either stored in RNAlater solution (per manufacture's recommendations) for later microRNA analysis, snap frozen and stored at −80° C., or fixed in 10% formalin and embedded in paraffin."}, "miR-27a [6]": {"tested_on": "miR-27a", "conditions": "these and other cancer cells (refs 23, 42, 43); cited from earlier work"}, "[7]": {"tested_on": "prostate and pancreatic tumors and cells", "conditions": "cited from earlier work"}, "[8]": {"conditions": "15 mg/kg/d oral gavage, 5 days a week for 22 days, vs corn oil"}},
  "data": [
    {"smiles": "COC(=O)[C@@]1(C)CC[C@]2(C)CC[C@]3(C)C(=CC(=O)[C@@H]4[C@@]5(C)C=C(C#N)C(=O)C(C)(C)[C@@H]5CC[C@]43C)[C@@H]2C1", "note": "[β-CDODA-Me, methyl-2-cyano-3,11-dioxo-18β-olean-1,12-dien-30-oate]", "values": [
      {"measurement": "proliferation", "setting": "[1]; 0.5-5 μM, 4 days", "value": "decreased proliferation"},
      {"measurement": "proliferation and apoptosis responses after cotreatment with T007", "setting": "[1]; T007 10 μM", "value": "not affected"},
      {"measurement": "apoptosis", "setting": "RKO and SW480 cells [2]; RKO and SW480 cells", "value": "induced apoptosis"},
      {"measurement": "caspase-dependent PARP cleavage", "setting": "RKO and SW480 cells [2]; colon cancer cells (β-CDODA-Me: RKO; ZBTB10: SW480 and RKO)", "value": "induced"},
      {"measurement": "Sp1, Sp3 and Sp4 mRNA levels", "setting": "[3]; 24 hr, semi-quantitative RT-PCR", "value": "decreased expression"},
      {"measurement": "expression of Sp-dependent proteins survivin, VEGFR1 (Flt-1) and VEGF", "setting": "[3]; Western blot", "value": "decreased expression"},
      {"measurement": "luciferase activity, Sp1 promoter constructs (pSp1For4, pSp1For2, pSp1For1)", "setting": "Sp1 gene promoter", "value": "decreased luciferase activity"},
      {"measurement": "luciferase activity, Sp3 promoter constructs (pSp3For5, pSp3For2)", "setting": "Sp3 gene promoter", "value": "decreased luciferase activity"},
      {"measurement": "miR-27a", "setting": "miR-27a [4]", "value": "decreased"},
      {"measurement": "ZBTB10 levels", "setting": "ZBTB10", "value": "induced"},
      {"measurement": "cell cycle arrest", "setting": "RKO and SW480 cells [5]", "value": "induced a G2/M arrest"},
      {"measurement": "percentage of cells in S phase", "setting": "RKO and SW480 cells [5]; 24 hr, 2.5 and 5.0 μM respectively", "value": "increased and then decreased"},
      {"measurement": "cells in G2/M", "setting": "RKO and SW480 cells [5]; 24 hr, 2.5 and 5.0 μM, vs DMSO", "value": "increase"},
      {"measurement": "percentage of cells in G0/G1", "setting": "RKO and SW480 cells [5]; 24 hr, 2.5 and 5.0 μM, vs DMSO", "value": "concentration-dependent decrease"},
      {"measurement": "cdc2 phosphorylation", "setting": "Myt-1, Wee-1 and cdc2; RKO and SW480 cells, Western blot", "value": "time-dependent induction"},
      {"measurement": "Myt-1 mRNA expression", "setting": "Myt-1, Wee-1 and cdc2; RKO and SW480 cells, real time PCR", "value": "induced"},
      {"measurement": "Wee-1 expression", "setting": "Myt-1, Wee-1 and cdc2; SW480 or RKO cells", "value": "did not affect"},
      {"measurement": "body or organ weight loss associated with toxic side effects", "setting": "RKO cells as xenografts; 15 mg/kg/d", "value": "not accompanied by any body or organ weight loss"},
      {"measurement": "miR-27a expression in tumors", "setting": "RKO cells as xenografts; [8]", "value": "inhibited"},
      {"measurement": "tumor growth (volume)", "setting": "RKO cells as xenografts; [8]", "value": "inhibited"},
      {"measurement": "tumor weight", "setting": "RKO cells as xenografts; [8]", "value": "inhibited"},
      {"measurement": "levels of miR-27a RNA", "setting": "miR-27a [6]", "value": "decrease"}
    ]},
    {"smiles": "Cc1c(Cl)cccc1Nc1ccccc1C(=O)O", "note": "[tolfenamic acid]", "values": [
      {"measurement": "levels of miR-27a RNA", "setting": "miR-27a [6]", "value": "decrease"},
      {"measurement": "growth of prostate and pancreatic tumors and cells", "setting": "[7]", "value": "inhibit growth"}
    ]}
  ]
}
